# Measurements published in PMC5413848, “Optimization of intestinal microsomal preparation in the rat: A systematic approach to assess the influence of various methodologies on metabolic activity and scaling factors” (Biopharmaceutics & Drug Disposition, 2017).
# Read-outs that look alike come from different tables or passages of the source.
# How the values were obtained:
# [1] = in vitro; settings: for microsomal CLint at 1 μM: Han-Wistar, rat, in-house combined cofactors
# Experimental: (§1) Microsomes prepared previously via the optimized method (preparation method 8) were combined to form pool 1 (n = 9 rats). A second set of three preparations was combined to form pool 2 (n = 9 rats). Intestinal microsomes were also prepared from intestinal tissue flash‐frozen in tubes on arrival in the laboratory and kept at −80°C until thawing on ice on the morning of preparation, (n = 3 occasions of n = 3 samples). In addition, for comparative purposes microsomes were also prepared from scraped intestinal tissues. Microsomes were prepared after cutting along the length of intestine and gently scraping the intestinal epithelial with a glass microscope slide (n = 1 occasion, n = 3 samples). Commercially available pooled intestinal microsomes were also used as a comparator to those produced in‐house. […] The microsomes were stored at −80°C prior to experiments.
# The microsomes prepared from the final optimized preparation method (method 8) were measured for CYP content on the day of preparation prior to storage. These microsomes (n = 3 samples prepared on n = 3 separate occasions) were subsequently thawed on ice and pooled for pool 1. The pool 1 microsomes were then assayed for testosterone and 4‐NP metabolite formation. Additional intestinal microsomes were created using the identical methodology with the same number of rat intestinal samples (n = 3 samples prepared on n = 3 occasions) and assayed for testosterone and 4‐NP metabolite formation as well as for CYP content on the day of preparation before storage. The microsomes from this second set of preparations were then thawed and pooled to form pool 2.
# (§2) Midazolam and 7‐hydroxycoumarin were both incubated at 1 mg/ml and 0.5 mg/ml. The microsomes were incubated on ice with alamethacin (50 μg/mg) for 15 min. […] The samples were quenched with ice cold acetonitrile (3:1 quench to sample) containing the internal standard (AZ1). The total incubation time was 40 min. Quenched samples were stored overnight at −20°C. The following day, the samples were diluted with 200 μl UPH2O, and spun at 3000 rpm (Sorvall legend RT centrifuge) for 15 min, and 200 μl of supernatant taken for analysis.
# [2] = Nonspecific protein binding in rat intestinal microsomes (96-well micro-equilibrium dialysis)
# Experimental: Nonspecific protein binding was determined in microsomes (1 mg/ml) using high throughput 96‐well micro‐equilibrium dialysis methodology (HTDialysis, LLC, Gales Ferry, CT, USA). These experiments used dialysis membrane strips with 12–14 kDa molecular mass cut‐off (HTDialysis). The microsomes were constituted in 0.1 M phosphate buffer (pH 7.4). The final concentrations of the test compounds was 1 μM. Microsomes containing the test compound were aliquoted into donor wells in triplicate, and buffer placed in the acceptor wells. The plate was incubated at 37°C and left to equilibrate on a plate shaker (450 rpm) for 4 h. Samples from both the acceptor and donor sides of the membrane were then transferred to 96‐well plates and quenched in acetonitrile containing internal standard (AZ1). The same sample preparation and LC–MS/MS methodology was used as described for the microsomal incubations. Compound MS transitions and retention times are reported in Supplemental material Table 3. Fuinc was calculated as the ratio of acceptor to donor both normalized for internal standard as described previously 41. Correction for protein binding for depletion experiments undertaken at 0.5 mg/ml were made using Equation (4).
# (4) fumic,2=1/[P]mic,2/Pmic,1×1−fumic,1/fumic,1+1
# where mic,1 denotes 1 mg/ml and mic,2 is 0.5 mg/ml.
# [3] = In vitro-in vivo extrapolation of rat intestinal unbound intrinsic clearance (CL int,u,gut); type: in vitro ADME; settings: for CL int,u,gut, Combined in-house pools: mean of pool 1 and pool 2 CL int,u and scaling factors; for CL int,u,gut, Pool 1 Mean: pool 1, pool specific scaling factors; for CL int,u,gut, Pool 1 Mean / CL int,u,gut, Pool 2 Mean: threshold 0.01 l/h; for CL int,u,gut, Pool 2 Mean: pool 2, pool specific scaling factors
# From the text: The CL int,u values were scaled to give CL int,u,gut using scaling factors for the corresponding microsomal pool (Eq. (5)). The use of scalars from the mean of both pools was also investigated, and was also used for scaling of commercial microsome CL int,u data.
# (5) CLint,u,G=CLuint⋅MPPGI⋅Intestine Segment Weight
# [4] = Substrate depletion in commercial Han Wistar rat intestinal microsomes, combined or individual CYP and UGT cofactors; settings: for microsomal CLint at 1 μM: male, Han Wistar, rat, pH 7.4, CL int,u, Commercial Han Wistar pool
# Experimental: as §1, §2
# [5] = microsomes, pH 7.4, CL int,u, Pool 1
# [6] = microsomes, pH 7.4, CL int,u, Pool 2
# [7] = rat intestinal microsomes 1 mg/ml, compound 1 μM
# [8] = rat intestinal microsomes, in-house pool 1, pH 7.4, CL int,u, Pool 1, pool 1, 1 mg/ml, 1 μM compound, CYP and UGT cofactors
# [9] = commercial Han Wistar microsomes, individual cofactors
# [10] = CYP cofactors, 1 mg/ml, 1 μM compound, CYP cofactors only
# [11] = Combined cofactors, 1 mg/ml, 1 μM compound, combined CYP and UGT cofactors
# [12] = UGT cofactors, 1 mg/ml, 1 μM compound, UGT cofactors only
smiles,measurement,setting,value
CN1CCN(CC(=O)N2c3ccccc3C(=O)Nc3cccnc32)CC1 [Pirenzepine],microsomal CLint at 1 μM,[1]; [5],3.9 µL/min/mg
same,microsomal CLint at 1 μM,[1]; [6],2.7 µL/min/mg
same,Microsomal binding,"[2]; rat, 4 h, 1 μM, pH 7.4",0%
same,fuinc,"[2]; rat, 4 h, 1 μM, pH 7.4",1.00
same,"CL int,u,gut, Mean Han Wistar commercial microsomes",[3],3.21 L/h
CCCc1nn(C)c2c(=O)[nH]c(-c3cc(S(=O)(=O)N4CCN(C)CC4)ccc3OCC)nc12 [Sildenafil],microsomal CLint at 1 μM,[1]; [5],23.8 µL/min/mg
same,microsomal CLint at 1 μM,[1]; [6],18.4 µL/min/mg
same,fuinc,"[2]; rat, 4 h, 1 μM, pH 7.4",0.73
O=C(O)Cc1ccccc1Nc1c(Cl)cccc1Cl [Diclofenac],fuinc,"[2]; rat, 4 h, 1 μM, pH 7.4",0.98
C=CC[C@@H]1/C=C(\C)C[C@H](C)C[C@H](OC)[C@H]2O[C@@](O)(C(=O)C(=O)N3CCCC[C@H]3C(=O)O[C@H](/C(C)=C/[C@@H]3CC[C@@H](O)[C@H](OC)C3)[C@H](C)[C@@H](O)CC1=O)[C@H](C)C[C@@H]2OC [Tacrolimus],microsomal CLint at 1 μM,"[1]; rat intestinal microsomes, in-house pool 1, pH 7.4, CL int,u, Pool 1, pool 1, incubated at 0.5 mg/ml (footnote b), 1 μM compound",465 µL/min/mg
same,microsomal CLint at 1 μM,"[1]; rat intestinal microsomes, in-house pool 2, pH 7.4, CL int,u, Pool 2, pool 2, incubated at 0.5 mg/ml (footnote b), 1 μM compound",413 µL/min/mg
same,fuinc,[2]; [7],0.32
same,Predicted protein binding at 0.5 mg/ml from data measured at 1 mg/ml,"[2]; rat, 4 h, 1 μM, pH 7.4",0.48
same,"CL int,u,gut, Combined in-house pools",[3],59.22 L/h
same,"CL int,u,gut, Pool 1 Mean",[3],37.77 L/h
same,"CL int,u,gut, Pool 2 Mean",[3],77.09 L/h
CC(C)NCC(O)COc1ccc(COCCOC(C)C)cc1 (stereo not drawn) [Bisporolol],"CL int,u, in-house combined cofactors, Pool 1","[1]; pool 1, 1 mg/ml, 1 μM compound, CYP and UGT cofactors",5.4 µL/min/mg
same,"CL int,u, in-house combined cofactors, Pool 2","[1]; pool 2, 1 mg/ml, 1 μM compound, CYP and UGT cofactors",< 0.1 µL/min/mg
same,fuinc,[2]; [7],0.89
same,"CL int,u,gut, Combined in-house pools",[3],0.02 L/h
same,"CL int,u,gut, Pool 1 Mean",[3],0.01 L/h
same,"CL int,u,gut, Pool 2 Mean",[3],0.03 L/h
COc1ccc2[nH]c([S+]([O-])Cc3ncc(C)c(OC)c3C)nc2c1 (stereo not drawn) [Omeprazole],microsomal CLint at 1 μM,[1]; [8],7.6 µL/min/mg
same,fuinc,[2]; [7],0.90
same,"CL int,u,gut, Combined in-house pools",[3],0.01 L/h
same,"CL int,u,gut, Pool 1 Mean",[3],0.01 L/h
same,"CL int,u,gut, Pool 2 Mean",[3],0.01 L/h
CCCCNc1cc(C(=O)O)cc(S(N)(=O)=O)c1Oc1ccccc1 [Bumetanide],fuinc,"[2]; rat, 4 h, 1 μM, pH 7.4",0.92
CCCCc1nc(Cl)c(CO)n1Cc1ccc(-c2ccccc2-c2nn[nH]n2)cc1 [Losartan],microsomal CLint at 1 μM,[1]; [5],34.8 µL/min/mg
same,microsomal CLint at 1 μM,[1]; [6],14.8 µL/min/mg
same,fuinc,"[2]; rat, 4 h, 1 μM, pH 7.4",0.87
same,Main route of elimination (CYP vs UGT cofactors),[4]; [9],glucuronidation
same,microsomal CLint at 1 μM,[4]; [10],0.1 µL/min/mg
same,microsomal CLint at 1 μM,[4]; [11],10 µL/min/mg
same,microsomal CLint at 1 μM,[4]; [12],9 µL/min/mg
same,"CL int,u,gut, Mean Han Wistar commercial microsomes",[3],0.04 L/h
CC(C)Oc1ccc2c(=O)c(-c3ccccc3)coc2c1 [Ipriflavone],microsomal CLint at 1 μM,[1]; [5],495 µL/min/mg
same,microsomal CLint at 1 μM,[1]; [6],416 µL/min/mg
same,Predicted protein binding at 0.5 mg/ml from data measured at 1 mg/ml,"[2]; rat, 4 h, 1 μM, pH 7.4",0.43
same,fuinc,"[2]; rat, 4 h, 1 μM, pH 7.4",0.28
same,Main route of elimination (CYP vs UGT cofactors),[4],CYP mediated metabolism
same,microsomal CLint at 1 μM,"[4]; microsomes, CYP cofactors",59.1 µL/min/mg
same,microsomal CLint at 1 μM,"[4]; microsomes, Combined cofactors",72 µL/min/mg
same,microsomal CLint at 1 μM,"[4]; microsomes, UGT cofactors",7.3 µL/min/mg
same,"CL int,u,gut, Mean Han Wistar commercial microsomes",[3],0.05 L/h
CCC(C)(C)C(=O)O[C@H]1C[C@@H](C)C=C2C=C[C@H](C)[C@H](CC[C@@H]3C[C@@H](O)CC(=O)O3)[C@H]21 [Simvastatin],fuinc,[2]; [7],0.93
same,"CL int,u,gut, Combined in-house pools",[3],1.38 L/h
same,"CL int,u,gut, Pool 1 Mean",[3],1.08 L/h
same,"CL int,u,gut, Pool 2 Mean",[3],1.57 L/h
COc1ccc2c(c1)c(CC(=O)O)c(C)n2C(=O)c1ccc(Cl)cc1 [Indomethacin],microsomal CLint at 1 μM,[1]; [5],48.9 µL/min/mg
same,microsomal CLint at 1 μM,[1]; [6],62.4 µL/min/mg
same,fuinc,"[2]; rat, 4 h, 1 μM, pH 7.4",0.88
same,"CL int,u,gut, Mean Han Wistar commercial microsomes",[3],0.22 L/h
COc1ccc([C@@H]2Sc3ccccc3N(CCN(C)C)C(=O)[C@@H]2OC(C)=O)cc1 [Diltiazem],microsomal CLint at 1 μM,[1]; [5],21.8 µL/min/mg
same,microsomal CLint at 1 μM,[1]; [6],26.7 µL/min/mg
same,fuinc,"[2]; rat, 4 h, 1 μM, pH 7.4",0.85
O=C(c1ccc(OCCN2CCCCC2)cc1)c1c(-c2ccc(O)cc2)sc2cc(O)ccc12 [Raloxifene],fuinc,"[2]; rat, 4 h, 1 μM, pH 7.4",0.06
O=c1ccc2ccc(O)cc2o1 [7‐Hydroxycoumarin],microsomal CLint at 1 μM,[1]; [5],196 µL/min/mg
same,microsomal CLint at 1 μM,[1]; [6],264 µL/min/mg
same,Predicted protein binding at 0.5 mg/ml from data measured at 1 mg/ml,[2],1.00
same,Microsomal binding,"[2]; rat, 4 h, 1 μM, pH 7.4",0%
same,fuinc,"[2]; rat, 4 h, 1 μM, pH 7.4",1.00
same,Main route of elimination (CYP vs UGT cofactors),[4]; [9],glucuronidation
same,microsomal CLint at 1 μM,[4]; [10],0.9 µL/min/mg
same,microsomal CLint at 1 μM,[4]; [11],272 µL/min/mg
same,microsomal CLint at 1 μM,[4]; [12],327 µL/min/mg
same,"CL int,u,gut, Mean Han Wistar commercial microsomes",[3],0.07 L/h
CN(C)CCC=C1c2ccccc2CCc2ccccc21 [Amitriptyline],microsomal CLint at 1 μM,[1]; [8],24.3 µL/min/mg
same,microsomal CLint at 1 μM,"[1]; rat intestinal microsomes, in-house pool 2, pH 7.4, CL int,u, Pool 2, pool 2, 1 mg/ml, 1 μM compound, CYP and UGT cofactors",19.9 µL/min/mg
same,fuinc,[2]; [7],0.20
same,Main route of elimination (CYP vs UGT cofactors),[4]; [9],comparable
same,"Agreement of additive individual cofactor CL int,u with combined cofactor CL int,u","[4]; commercial microsomes, eight compounds",outside 2‐fold range
same,microsomal CLint at 1 μM,[4]; [10],5.3 µL/min/mg
same,microsomal CLint at 1 μM,[4]; [11],23.8 µL/min/mg
same,microsomal CLint at 1 μM,[4]; [12],3 µL/min/mg
same,"CL int,u,gut, Combined in-house pools",[3],0.01 L/h
same,"CL int,u,gut, Pool 1 Mean",[3],0.01 L/h
O=C1CC2(CCCC2)CC(=O)N1CCCCN1CCN(c2ncccn2)CC1 [Buspirone],microsomal CLint at 1 μM,"[1]; microsomes, pH 7.4, CL int,u, Pool 1, pool 1, 1 mg/ml, 1 μM compound, CYP and UGT cofactors",3.2 µL/min/mg
same,microsomal CLint at 1 μM,"[1]; microsomes, pH 7.4, CL int,u, Pool 2, pool 2, 1 mg/ml, 1 μM compound, CYP and UGT cofactors",1.4 µL/min/mg
CCCCC1=NC2(CCCC2)C(=O)N1Cc1ccc(-c2ccccc2-c2nnn[nH]2)cc1 [Irbesartan],microsomal CLint at 1 μM,[1]; [5],31.9 µL/min/mg
same,microsomal CLint at 1 μM,[1]; [6],35.9 µL/min/mg
same,fuinc,"[2]; rat, 4 h, 1 μM, pH 7.4",0.79
same,Main route of elimination (CYP vs UGT cofactors),[4]; [9],glucuronidation
same,microsomal CLint at 1 μM,[4]; [10],1.5 µL/min/mg
same,microsomal CLint at 1 μM,[4]; [11],15.2 µL/min/mg
same,microsomal CLint at 1 μM,[4]; [12],9.4 µL/min/mg
same,"CL int,u,gut, Mean Han Wistar commercial microsomes",[3],0.03 L/h
